# Results from patent US9040747B2, “Method for producing reduced coenzyme Q10, method for stabilizing same, and composition comprising same” (Kaneka Corporation, priority 2009, dated 2015).
# Experiments:
# [1] = Reduction of oxidized coenzyme Q10 by amino acid in Span 80/glycerin/Tween 80/MCT, HPLC proportion of reduced coenzyme Q10; conditions: Span 80, glycerin, Tween 80, MCT, 80° C., 16 hours, nitrogen atmosphere; for Comparative Example 3: proportion of reduced coenzyme Q10: 6 equivalents amino acid; for Proportion of reduced coenzyme Q10: Example 2 / Comparative Example 1: 6 equivalents
# Description: (§1) The purity of reduced coenzyme Q10 and the weight ratio of reduced coenzyme Q10 to oxidized coenzyme Q10 were determined by HPLC analysis in the Examples.
# (§2) Column: […] C18 (Waters): 250 mm (length)×4.6 mm (inner diameter); mobile phase: C2H5OH:CH3OH=4:3 (v:v); detection wavelength: 210 nm; flow rate: 1 ml/min; retention time for reduced coenzyme Q10: 9.1 min.; retention time for oxidized coenzyme Q10: 13.3 min.
# Crystalline oxidized coenzyme Q10 (0.3 g (i.e., 0.36 mmol)) and tryptophan (6 equivalents (i.e., 2.16 mmol)) were added to a liquid mixture of Span 80 (0.4 g), glycerin (0.3 g), Tween 80 (4.9 g), and MCT (1.4 g). The obtained mixture was stirred and heated at 80° C. for 16 hours under a nitrogen atmosphere.
# (§3) Crystalline oxidized coenzyme Q10 (0.3 g (i.e., 0.36 mmol)) was added to a liquid mixture of Span 80 (0.4 g), glycerin (0.3 g), Tween 80 (4.9 g), and MCT (1.4 g). L-cysteine or N-acetylcysteine (6 equivalents (i.e., 2.16 mmol) each) was separately added thereto. The obtained mixtures were stirred and heated at 80° C. for 16 hours under a nitrogen atmosphere.
# as §3, with “One of the amino acids” for “L-cysteine or N-acetylcysteine”, “each) listed in table 3” for “each)”
# [2] = Reduction of oxidized coenzyme Q10 by amino acid in ethanol, HPLC proportion of reduced coenzyme Q10; conditions: 78° C., 16 hours, nitrogen atmosphere; for Comparative Example 2: proportion of reduced coenzyme Q10: 6 equivalents amino acid; for Proportion of reduced coenzyme Q10: Example 1: 6 equivalents amino acid
# Description: as §1
# Crystalline oxidized coenzyme Q10 (0.3 g (i.e., 0.36 mmol)) was added to ethanol (4.5 g). […] The obtained mixtures were stirred and heated at 78° C. for 16 hours under a nitrogen atmosphere.
# [3] = Reduction of oxidized coenzyme Q10 by amino acid in limonene, HPLC proportion of reduced coenzyme Q10; conditions: 85° C., 16 hours, nitrogen atmosphere; for Comparative Example 4: proportion of reduced coenzyme Q10: 6 equivalents amino acid; for proportions of reduced coenzyme Q10: Example 3: 6 equivalents
# Description: as §1, §2
# Crystalline oxidized coenzyme Q10 (0.3 g (i.e. 0.36 mmol)) was added to limonene (4.5 g). Proline (6 equivalents (i.e., 2.16 mmol)) or serine (6 equivalents (i.e. 2.16 mmol)) was separately added thereto. The obtained mixtures were stirred and heated at 85° C. for 16 hours under a nitrogen atmosphere. The reaction solutions were analyzed by HPLC after the reaction.
# (§4) Crystalline oxidized coenzyme Q10 (0.3 g (i.e., 0.36 mmol)) was added to limonene (4.5 g). One of the amino acids (6 equivalents (i.e., 2.16 mmol) each) listed in table 3 was separately added thereto. The obtained mixtures were stirred and heated at 85° C. for 16 hours under a nitrogen atmosphere.
# [4] = Reduction of oxidized coenzyme Q10 by amino acid in condensed ricinoleate (CR-310)/MCT, HPLC proportion of reduced coenzyme Q10; conditions: condensed ricinoleate (CR-310) and MCT, 80° C., 16 hours, nitrogen atmosphere; for Comparative Example 5: proportion of reduced coenzyme Q10: 6 equivalents amino acid
# Description: as §1, §2
# Crystalline oxidized coenzyme Q10 (0.3 g (i.e. 0.36 mmol)) and tryptophan (6 equivalents (i.e., 2.16 mmol)) were added to a liquid mixture of condensed ricinoleate (CR-310, Sakamoto Yakuhin Kogyo Co., Ltd.) (3.8 g) and MCT (3.8 g). The obtained mixture was stirred and heated at 80° C. for 16 hours under a nitrogen atmosphere. The reaction solution was analyzed by HPLC after the reaction.
# as §4, with “a liquid mixture of condensed ricinoleate (CR-310, Sakamoto Yakuhin Kogyo Co., Ltd.) (3.8 g) and MCT (3.8” for “limonene (4.5”, “80°” for “85°”
Molecule,Comparative Example 3: proportion of reduced coenzyme Q10 [1],Comparative Example 2: proportion of reduced coenzyme Q10 [2],Comparative Example 4: proportion of reduced coenzyme Q10 [3],Comparative Example 5: proportion of reduced coenzyme Q10 [4],Proportion of reduced coenzyme Q10 [2],further results
C[C@H](N)C(=O)O [Alanine],0%,0%,0%,0%,–,–
N=C(N)NCCC[C@H](N)C(=O)O [Arginine],–,–,–,–,35% by weight,–
NCC(=O)O [Glycine],0%,0%,0%,1%,–,–
CC[C@H](C)[C@H](N)C(=O)O [Isoleucine],1%,1%,0%,0%,–,–
N[C@@H](CS)C(=O)O [L-cysteine],–,–,–,–,–,Proportion of reduced coenzyme Q10 [1]: 7% by weight
CC(=O)N[C@@H](CS)C(=O)O [N-acetylcysteine],–,–,–,–,–,Proportion of reduced coenzyme Q10 [1]: 3% by weight
O=C(O)[C@@H]1CCCN1 [Proline],–,–,–,–,6% by weight,proportions of reduced coenzyme Q10 [3]: 8 % by weight
N[C@@H](CO)C(=O)O [Serine],–,–,–,–,5% by weight,proportions of reduced coenzyme Q10 [3]: 3 % by weight
N[C@@H](Cc1c[nH]c2ccccc12)C(=O)O [Tryptophan],–,–,–,–,21% by weight,Proportion of reduced coenzyme Q10 [1]: 33% by weight; Proportion of reduced coenzyme Q10 ([4]; Example 4: 6 equivalents): 5 % by weight
CC(C)[C@H](N)C(=O)O [Valine],0%,1%,0%,0%,–,–
Lysine•n hydrate,–,–,–,–,69% by weight,–
